“Also recorded” adds a separate entry of the source.
Assays:
Type in all cases: cell-based
[1] = tested on: KATP channels; assay: Whole cell patch clamp of KATP currents in MIN6 beta cells; settings: illumination 470 ± 20 nm, JB253 concentration printed as 10 mM
Method: MIN6 cells (obtained from Dr Jun-ichi Miyazaki, Osaka University, see Miyazaki et al., 1990)) were cultured in DMEM supplemented with 15% FBS, 1% glutamine, 2% HEPES buffer, 0.0005% β-mercaptoethanol and 1% penicillin/streptomycin. Cells were seeded onto glass coverslips 24 hrs before whole cell patch clamp experiments using micropipettes generated from thin-walled borosilicate capillaries (3-6 MΩ). Bath solution contained in mM: 3 KCl, 118 NaCl, 25 HEPES, 3 MgCl2 and 2 CaCl2. Pipette solution contained in mM: 150 KCl, 3 MgCl2, 5 EGTA, 10 HEPES, 0.3 K2ATP (pH 7.2), and the holding potential was -60 mV. Illumination was provided using a X-Cite 120 mercury arc lamp (Lumen Dynamics) with a bandpass filter (470 ± 20 nm). Voltage ramps from -20 mV to -120 mV (500 ms duration) were applied every 5 s to produce current-voltage relationships in the presence and absence of JB253. All cells lines were regularly mycoplasma tested.

[2] = tested on: Epac2A; assay: Epac2-camps FRET imaging in HEK293t cells; settings: HEK293t cells expressing full length Epac2-camps; JB253 as cis-JB253 (excitation 440 nm)
Method: For EPAC2 imaging, HEK293t were transfected with the full length construct for […] containing the cAMP and sulfonylurea binding domains (obtained from Prof. […] Excitation was delivered at 440 nm and emitted signals captured using […] filters. FRET was calculated as the ratio of Cerulean (CFP):Venus (YFP) fluorescence. Signals were normalized using R/R0 where R is the ratio at a given timepoint and R0 is the minimum ratio.

[3] = tested on: mouse islets; assay: Calcium imaging (fMCI) of beta cell activity in intact mouse islets; settings: mouse islets
Method: Male and female CD1 and C57BL6 mice (8-20 weeks) were maintained in a specific pathogen-free facility under a 12h light-dark cycle with ad libitum access to water and food. Animals were euthanized using a schedule-1 method and pancreatic islets isolated by collagenase digestion. All procedures were regulated by the Home Office according to the Animals (Scientific Procedures) Act 1986 of the United Kingdom (PPL 70/7349), and study approval granted by the Animal Welfare and Ethical Review Body (AWERB) of Imperial College. No randomization was used for animal experimentation, since mice were only used as tissue donors.
Islets were loaded for 30-45 min in fluo2-AM (10 µM) or for 2-5 min with X-Rhod 1 (5 µM) diluted with a mixture of DMSO (0.01%, wt/vol) and pluronic acid (0.001%, wt/vol; all Invitrogen) in a bicarbonate buffer containing in mM: 120 NaCl, 4.8 KCl, 1.25 NaH2PO4, 24 NaHCO3, 2.5 CaCl2, 1.2 MgCl2 and 5 D-glucose. fMCI was performed using a Zeiss Axiovert M200 fitted with a Nipkow spinning-disk head (Yokogawa CSU-10) and a 10x/0.3NA objective adjusted for chromatic aberration (EC Plan-Neofluar, Zeiss). Pulsed excitation (frequency = 0.5 Hz; exposure = 263 ms) was delivered at 491 nm and emitted signals recorded at 500-550 nm with a back-illuminated 16-bit EM-CCD camera (ImageEM 9100-13; Hamamatsu). During recording, islets were maintained at 35-36 °C in the presence of 50 µM JB253 using a custom-manufactured perfusion and heating system (Digital Pixel). Drugs were introduced through the perfusion system at the indicated time points and concentrations. Violet light was delivered by a 405 ± 5 nm laser coupled to the side port of the microscope and configured to fill the back of the objective with light using an Optospot (Cairn Research). Blue light was delivered using 440 ± 5 nm and 491 ± 5 nm diode lasers controlled by a laser merge module (Spectral Applied Research) to allow simultaneous exposure and acquisition. For single islet targeting, a 473 ± 5 nm laser was coupled to a custom-manufactured dichroic array (Cairn Research), allowing user-directed steering of a collimated laser spot across the field of view. Signals were normalized using F/Fmin where F is fluorescence at a given timepoint and Fmin is minimum fluorescence.
Data distribution was determined using the D'Agostino omnibus test. Non-multifactorial pairwise comparisons were made using either the Student's t-test. Interactions between multiple treatments were assessed using one-way ANOVA followed by pairwise comparisons using Bonferroni's post-hoc test. Effect sizes in islets/cells are usually sufficiently large that multiple animals/independent replication is a more important determinant of power in studies requiring statistical comparison. Non-linear regression was used to calculate the EC50 of normalized and log-transformed concentration-response curves. For [3H]-glibenclamide displacement assays, data points were fitted to the Hill equation before calculation of the halfmax value. In all cases, analysis was performed using Graphpad Prism (Graphpad Software) and IgorPro, and experimental numbers reported as independent biological replicates. No animals or data were excluded from the analysis and results were considered significant at P<0.05.

CCN(CC)c1ccc(/N=N/c2ccc(S(=O)(=O)NC(=O)NC3CCCCC3)cc2)cc1 [JB253, (E)-N-(cyclohexylcarbamoyl)-4-((4-(diethylamino)phenyl)diazenyl)benzenesulfonamide]
block of KATP (hyperpolarizing) currents [1]: reversibly blocked; also recorded: only blocks the KATP current during illumination | ΔR/R0 (decrease in FRET) [2]: 0.064 AU | fluo-2-loaded population responding to illumination with synchronous Ca^2+ rises ([3]; 50 µM JB253, 405 nm laser, n = 10 recordings): 54% | responsive X-Rhod-1-loaded cells ([3]; 50 µM JB253, 405 nm, n = 3 recordings): 63% | stimulation of [Ca^2+]i ([3]; concentration-response, dark): largely ineffective | concentration-response curve for glimepiride in the presence of trans-JB253 ([3]; saturating concentration (100 µM) of trans-JB253, dark): right-shifted
